Laboratory results published in EP2292587A1, “PHARMACEUTICAL COMPOSITION FOR INHIBITING THE TRANSCRIPTION FACTOR INDUCIBLE BY HYPOXIA, MODULATORS OF PATHOLOGICAL PROCESSES OF ANGIOGENESIS, ONCOGENESIS, INFLAMMATION, APOPTOSIS, AND CELLULAR THERAPY” (Fundacion De La Comunidad Valenciana Centro De …, priority 2008, dated 2009).

How the values were obtained:
PHD3 and VEGF = assay: qPCR of PHD3 and VEGF in primary culture of epNSCs; assay type: cell-based, rat; conditions: 500 nM, hypoxia (1% O2), 6 to 24 hours
Excerpt: Adult Wistar rats of between 2 to 3 months of age were used (the animals were handled following the mode of action which complies with section 2.1 (acceptable methods of euthanasia) of the document prepared for the DGXI of the European Commission regarding the protection of animals used for experimentation and other scientific purposes (No. L358, ISSN 0378-6978) and after the approval of the protocols by the Committee for Animal Care and Wellbeing of the Centro de Investigación Principe Felipe, Valencia, SPAIN). Once the animals were sacrificed, the dorsal part of the spinal cord was dissected and the tissue was maintained, at 4°C, in washing medium (DPBS-glucose) for its processing. To reduce the percentage of connective tissue cells the meninges as well as the most superficial blood vessels were removed. […]
Total RNA was isolated using the commercial kit RNAeasy (Qiagen) and following the manufacturer's instructions. […] The quantitative polymerase chain reaction (qPCR) was carried out using Taqman probes and primers designed by Applied Biosystem for rVEGF (Ref Rn00582935_m1), rPHD3 (Ref Rn00571341_m1) and rGAPDH (Ref Rn01775763_g1). […] The expression levels of VEGF and PHD3 were expressed as the increase of Ct with respect to the expression levels of GAPDH (constitutive expression gene): Ct (ΔCt)=Ct (VEGF or PHD3)-Ct (GAPDH). […]

[1] = system: AKT/mTOR/p70S6/Cyclin D1 signaling pathway; assay: activation kinetics of mTOR signaling pathway, HCT116/p53+/+; assay type: cell-based, human; conditions: 0.5 µM
Procedure: Due to the crucial role of p53 as a tumor-suppressing agent, it was analyzed in HCT116 cells how FM19G11 affected the activation kinetics of proteins involved in favoring cell cycle progress, specifically the mTOR cell signaling pathway. An increase of cell progress can be due to replicative stress which generates DNA damage (Bartkova, J, Horejsi, Z, Koed, K, Kramer, A, Tort, F, Zieger, K et al., (2005) DNA damage response as a candidate anti-cancer barrier in early human tumorigenesis. Nature 434: 864-70; Bartkova, J, Rezaei, N, Liontos, M, Karakaidos, P, Kletsas, D, Issaeva, N et al., (2006) Oncogene-induced senescence is part of the tumorigenesis barrier imposed by DNA damage checkpoints. Nature 444: 633-7; Di Micco, R, Fumagalli, M, Cicalese, A, Piccinin, S, Gasparini, P, Luise, C et al., (2006) Oncogene-induced senescence is a DNA damage response triggered by DNA hyper-replication. Nature 444: 638-42), it was explored if the DDR triggered by FM19G11 was related to an increase of the cell cycle progress signal modulated by the mTOR signaling pathway. […]

HT29 = assay: clonicity assay, HT29; assay type: cell-based; conditions: Homo sapiens, HT-29; stimulated 72 hours, colonies counted after 10 days; read-out: survival IC50
Procedure: Clonicity assays were conducted to determine the toxicity of FM19G11 in p53-proficient (HT29 and HCT116/p53^+/+) and p53-deficient (HCT116/p53^-/-) tumor cells. Once the HT-29, HCT116/p53^+/+ and HCT116/p53^-/- cells were adhered to the culture plate, they were stimulated with increasing concentrations of FM19G11 (0.5, 1, 5, 10, 20, 50 µM) for 72 hours. After 10 days of stimulation, the number of colonies formed in the plates of treated and untreated cells was determined.
Results of the clonicity assays of HT29 human colon cancer cells, HCT116 cells treated with FM19G11 were monitored up to 10 after the treatment (Figure 28). The IC50 was determined by extrapolating the percentage with the concentration. FM19G11 was used at concentrations: 0.5, 1, 5, 10, 50, 100, 200 µM

## Cc1ccc(C(=O)COC(=O)c2cccc(NC(=O)c3ccc([N+](=O)[O-])cc3[N+](=O)[O-])c2)cc1 [FM19G11, 2-oxo-2-(p-tolyl)ethyl 3-((2,4-dinitro)benzamido)benzoate]
PHD3 and VEGF
  increase of both PHD3 and VEGF (mRNA): significantly inhibited
[1]
  activation of the AKT/mTOR/p70S6/Cyclin D1 signaling pathway (fold change): ≥ 2
HT29
  IC50: 1 µM
